Assay results as given in patent publication EP2271935B1, “METHOD AND KIT FOR THE EX VIVO EVALUATION OF THE RESPONSE OF A TUMOR TO CONDITIONS TO BE TESTED” (Universität Leipzig, priority 2008, dated 2009).

Test system: epithelial cell line KB (DSMZ ACC 136)
Test: MTT assay of proliferation under varied riboflavin content and light exposure
Type: cell-based, human
Description: To address this question, three media, a) the RPMI 1640 without riboflavin and phenol red that is used in the method according to the invention and was manufactured according to our specifications by Biochrom, as well as two different RPMI 1640 charges purchased from Invitrogen which were each containing 532 nmol/L riboflavin, b) a phenol red-free (Gibco 11835), and c) a conventional RPMI 1640 (Gibco 21875) with 13.284 µmol/L phenol red. All media were supplemented with 2 mmol/L L-alanyl-1-glutamine as stabilized glutamine source (Biochrom K0302 Lot 0755 S) and the same amount of 10% (v/v) of heat-inactivated fetal calf serum (FCS) that was purchased from Invitrogen (Lot 41Q7554K) with a yield of 198 nmol/L riboflavin. […] These medium concentrations define the riboflavin concentrations in controls (see below).
In addition to the influences exerted by the different types of media alone, the riboflavin-dependent impact on the outcome of the docetaxel treatment was investigated. For this purpose 100 µl/well of docetaxel dilutions containing threefold the concentration indicated were added into the wells of microwell plates. The following seven docetaxel concentrations were tested: 19.38, 38.75, 77.5, 155, 310, 620, and 1,240 pmol/L.
To examine photoactivation-dependent riboflavin-mediated effects disturbing the outcome of ex-vivo chemoresponse-evaluation by conventional cell culture medium, and in particular in the absence of flavin-protecting experimental conditions, varying amounts of riboflavin were added. A stock solution of 200 µM (-)-riboflavin (CAS 83-68-5, Sigma R9504, FW=376.37 g/mol, purity >99%, cell culture tested) in phosphate buffered saline was diluted to adjust in each case the highest final concentration in culture (this means: after completion of the assay by addition of the other two components to the final assay volume of 300 µL) to exactly 10 µmol/L. Serial log10-dilutions were made from this concentration in each corresponding medium. These gave final concentrations in cell culture of 10.000, 1.018, 0.12, and 0.03 µmol/L in the case of medium a) (the medium according to the method of the invention), and concentrations of 10.000, 1.449, 0.594, and 0.508 µmol/L using media b) and c).
In general, each combination of riboflavin and docetaxel were tested in duplicate, and controls without additional riboflavin in quadruplicate for each experimental setting in the same 96-well plate. The experimental conditions were as follows: For each of the used media, two different plates were prepared simultaneously and either handled completely under flavin-protecting conditions (illumination only by sodium discharge lamps with an emission wavelength of 589 nm [i]), or in the same bench (Thermo MSC 12) with the installed light inside their working chamber switched on. The dilution of docetaxel and those of riboflavin in the particular medium were prepared for all four plates of each medium type prior to the other working steps under flavin-protecting conditions. Thus the administrations of these dilutions took about 20 min either under flavin-protecting conditions or illuminated conditions. After completed preparation of the plates that thereafter contained 200 µL of both diluted compounds, the plates were incubated 2 h in the incubator to allow for adjustment of the appropriate pH.
In between the stock culture of KB was harvested by trypsination of a 3-days stock culture (exponential growth phase). Stock cultures of KB cells always were grown without any antibiotic or antimycotic in phenol red- and riboflavin-free RPMI 1640 supplemented with 10% (v/v) FCS and were adapted to this medium for more than five passages. They were always handled at room temperature or warmer and were never exposed to light other than the light of a sodium discharge lamp with an emission wavelength of 589 nm for at least five passages. […]

## Cc1cc2nc3c(=O)[nH]c(=O)nc-3n(C[C@H](O)[C@H](O)[C@H](O)CO)c2cc1C [riboflavin, (-)-riboflavin]
10 µmol/L riboflavin; plate 03, medium a), bench lighting below 30 min
  toxicity of riboflavin to KB cells: complete die off of the KB cells
Exposed to daylight 30 min (plates 02, 04, 06, 08, 10, and 12)
  riboflavin concentrations leading to complete dying of all KB cells: above 594 nmol/L
